Key:
[1] = Binding of FITC-RE-1 to UCN (time, concentration, pH, salt, temperature); settings: 50 μg FITC-RE-1, 100 μg UCN
Description: 50 μg of FITC-RE-1 was incubated with 100 μg of UCN for different time periods (2 min, 10 min, 30 min, 120 min, and 720 min). Then, the amount of FITC-RE-1 fluorescent peptide binding to UCN was measured by using fluorescence spectrophotometer.
100 μg of UCN was incubated with FITC-RE-1 at various concentrations (5 μg, 10 μg, 25 μg, 50 μg, and 100 μg) for 1 hr. The excess and unbound peptides were washed off. The amount of FITC-RE-1 fluorescent peptide binding to UCN was measured by using fluorescence spectrophotometer.
(§1) 50 μg of FITC-RE-1 was incubated with 100 μg of UCN dissolved at different pH values (pH 3, 5, 7, and 10) for 1 hr. The excess and unbound peptides were washed off. The amount of FITC-RE-1 fluorescent peptide binding to UCN was measured by using fluorescence spectrophotometer.
as §1, with “salt ion concentrations (0 M, 0.15 M, 0.3 M,” for “pH values (pH 3, 5, 7,”, “0.5 M NaCl)” for “10)”
50 μg of FITC-RE-1 was incubated with 100 μg of UCN dissolved in water at different temperatures (25° C., 37° C., 55° C., and 80° C.) for 1 hr. […] The amount of FITC-RE-1 fluorescent peptide binding to UCN was measured by using fluorescence spectrophotometer.

[2] = test system: living HeLa cells, the immobilized cells, and the cell culturing plate; assay: Nonspecific adherence of nanophosphors with or without RE-1 coating; assay type: cell-based; settings: 2 hr treatment, washed 3 times with PBS
Description: Living HeLa cells (purchased from Institute of Biochemistry and Cell Biology, SIBS, CAS) cultured in a 96-well plate, immobilized cells, and cell culturing plate were treated with UCN and UCN-S with or without RE-1 coating for 2 hr, respectively, and then washed with PBS for 3 times. The binding of UCN nanoparticles to the living HeLa cells, the immobilized cells, and the cell culturing plate was observed under a fluorescence microscope (Olympus IX71, Olympus, Japan) equipped with a 980 nm infrared laser (MDL-980 nm 1W, Changchun New Industries Optoelectronics Tech. Co., Ltd, China).

HeLa cells [3] = assay: Diffusibility / adherence on coverslip with cells facing upward or downward; assay type: cell-based
Description: HeLa cells were cultured on a coverslip (22 mm×22 mm), which was then placed into a 6-well plate with the cells facing upward or downward, and the coverslip was supported by a sterilized glass cube (2 mm×2 mm×2 mm). Then, 4 mL DMEM medium (Gibco) containing the rare-earth upconversion nanophosphors (UCN, UCP) with or without RE-1 coating was slowly poured into the 6-well plate, such that the cells were fully immersed in the medium, and the coverslip is just located at the middle of the height of the liquid. The cells were placed into a cell incubator at 37° C. for 2 hr, and then washed with PBS 3 times. The UCNs adhered to the surfaces of the cells were observed under a fluorescence microscope (Olympus IX71, Olympus, Japan) equipped with a 980-nm infrared laser (MDL-980 nm 1 W, Changchun New Industries Optoelectronics Tech. Co., Ltd, China).

[4] = test system: LC3 type II in mice liver; assay: Western blotting of LC3 in mice livers after tail vein injection; assay type: in vivo; settings: 300 μg (15 mg/kg) tail vein, 24 hr
Description: Western blotting is performed as follows: After an incubation of 24 h, the cells are collected and lysed with lysis buffer (purchased from Beyotime Biotechnology, China). The lysate is boiled in boiling water for 10 min, subjected to 15% SDS-PAGE, and then transferred to nylon membrane (purchased from Amersham Inc.) by a wet transfer. In the Western blotting, Anti-LC3 (Light Chain 3 Protein Antibody, purchased from Novus Inc., Catalog #: NB 100-2220) is used as primary antibody; GAPDH (purchased from Millipore Inc.) is used as internal reference; and Horseradish peroxidase (HRP) conjugated goat anti-rabbit IgG (H+L) (Goat Anti-Rabbit IgG (H+L), HRP Conjugate) (purchased from Promega Inc.) is used as secondary antibody.
Balb/c mice (purchased from SLAC Laboratory Animal (Shanghai, China), 6 weeks old, and weighed 20 g when used) were bred in a sterile housing, and then 300 μg (dosage: 15 mg/kg) UCN, UCN+PEG (containing 10 mg PEG), UCN+RE-1, UCP, UCP+RE-1, or UCP+AP-1 was injected through tail vein. An equal volume of normal saline was injected as a control. After 24 hr, the livers of the mice were removed and subjected to western blotting assay.

HeLa cells [5] = assay: Adherence of UCN coated with RE-1 or RE-1-RGD to HeLa cells; assay type: cell-based; settings: 37° C., 2 hr, versus uncoated
Description: HeLa cells were cultured on a coverslip (22 mm×22 mm), which was then placed into a 6-well plate with the cells facing upward or downward, and the coverslip was supported by a sterilized glass cube (2 mm×2 mm×2 mm). Then, 4 mL of DMEM medium containing the rare-earth upconversion nanophosphors coated with RE-1 or RE-1-RGD or without any coating was slowly poured into the 6-well plate, such that the cells were fully immersed in the medium, and the coverslip was just located at the middle of the height of the liquid. The cells were placed into a cell incubator at 37° C. for 2 hr, and then washed with PBS 3 times. The UCNs adhered to the surfaces of the cells were observed under a fluorescence microscope (Olympus IX71, Olympus, Japan) equipped with a 980-nm infrared laser (MDL-980 nm 1 W, Changchun New Industries Optoelectronics Tech. Co., Ltd, China).

In the case of “ACTARSPWICG [RE-1, RE-0 with terminal amino acids A and G added]”, the “binding to UCN at 2 min” value ([1]; 2 min) is reported as 50%, the “binding to UCN at 10 min” value ([1]; 10 min) is reported as “almost binding saturation” and the “nonspecific adherence of UCN coated with RE-1 versus UCN without RE-1 coating” value [2] is reported as “about 10 times lower”. The “nonspecific adherence of UCN-S coated with RE-1 versus UCN-S without RE-1 coating” value [2] was “about 100 times lower”, the “amount of nanophosphors (UCN, UCP) coated with RE-1 adhered to the cell surfaces” value (HeLa cells [3]; cell-facing-upward group, 37° C., 2 hr) was “significantly reduced” and the “diffusibility of the rare-earth upconversion nanophosphors (UCN, UCP) in solution” value (HeLa cells [3]; cells facing upward versus downward) was “reduced the diffusibility”. The “effect of RE-1 coating of UCN and UCP on LC3 type II in mice liver” value [4] was “significantly prevented the increase of LC3 type II” and the “number of coated upconversion nanophosphors adhered to the surface of the cells” value (HeLa cells [5]) was “greatly reduced”.
